Laboratory results as given in patent publication US7091038B2, “Ecdysone receptor-based inducible gene expression system” (RheoGene, Inc., priority 2000, dated 2006).

What was measured:
GAL4EcR + VP16USP [1] = assay: Transactivation of reporter gene through switch 1.2 in CHO cells; assay type: cell-based, Choristoneura fumiferana; details: switch 1.2, pGAL4RELuc
Protocol: (§1) This construct was prepared in the same way as in switch 1.1 above except MmRXRDEF was replaced with the D, E and F domains from spruce budworm USP (“CfUSPDEF”; SEQ ID NO: 67). The constructs used in this example are similar to those disclosed in U.S. Pat. No. 5,880,333 except that Choristoneura fumiferana USP rather than Drosophila melanogaster USP was utilized.
(§2) The cells were harvested and reporter activity was assayed.
(§3) Cells were harvested 24–48 hr after adding ligands. […] Twenty μl of lysate was assayed.

GAL4RXR + VP16CfEcR [2] = assay: Transactivation of reporter gene through switch 1.3 in CHO cells; assay type: cell-based, Mus musculus; Choristoneura fumiferana; details: switch 1.3, pGAL4RELuc
Protocol: as §2, §3

GAL4USP + VP16CfEcR = assay: Transactivation of reporter gene through switch 1.5 in CHO cells; assay type: cell-based, Choristoneura fumiferana; details: switch 1.5, pGAL4RELuc
Protocol: This construct was prepared in the same way as switch 1.3 except MmRXRDEF was replaced with CfUSPDEF (SEQ ID NO: 67).
as §2, §3

GAL4CfEcRVP16 [3] = assay: Transactivation of reporter gene through switch 1.6 in CHO cells; assay type: cell-based, Choristoneura fumiferana; details: switch 1.6, pGAL4RELuc
Protocol: (§4) This construct was prepared so that both the GAL4 DNABD and the VP16AD were placed on the same molecule. GAL4DNABD (SEQ ID NO: 43) and VP16AD (SEQ ID NO: 49) were fused to CfEcRDEF (SEQ ID NO: 3) at N-and C-termini respectively.
as §2, §3

GAL4EcR + VP16USP [4] = assay: Transactivation of reporter gene through switch 1.2 in 3T3 cells; assay type: cell-based, Choristoneura fumiferana; details: switch 1.2, pGAL4RELuc
Protocol: as §1, §2
(§5) The cells were plated when they reached 50% confluency.
as §3

GAL4RXR + VP16CfEcR [5] = assay: Transactivation of reporter gene through switch 1.3 in 3T3 cells
From the text: In various cellular backgrounds, including mammalian cells, insect ecdysone receptor (EcR) heterodimerizes with retinoid X receptor (RXR) and, upon binding of ligand, transactivates genes under the control of ecdysone response elements. […] The prepared receptor constructs comprise a ligand binding domain of EcR and of RXR or of USP; a DNA binding domain of GAL4 or of EcR; and an activation domain of VP16. The reporter constructs include a reporter gene, luciferase or LacZ, operably linked to a synthetic promoter construct that comprises either GAL4 or EcR/USP binding sites (response elements). Various combinations of these receptor and reporter constructs were cotransfected into CHO, NIH3T3, CV1 and 293 cells.
The same procedures described for CHO cells were followed for 3T3 cells as well with two modifications. The cells were plated when they reached 50% confluency. 125,000 or 50,000 or 25,000 cells were plated per well of 6- or 12- or 24-well plates respectively. […] The ligand treatments were performed as described in the CHO cell section above.

GAL4CfEcRVP16 [6] = assay: Transactivation of reporter gene through switch 1.6 in 3T3 cells; assay type: cell-based, Choristoneura fumiferana; details: switch 1.6, pGAL4RELuc
Protocol: as §4, §2, §5, §3

CfVgRXR + MmRXR = assay: Transactivation of reporter gene through switch 1.9 in 3T3 cells; assay type: cell-based, Choristoneura fumiferana; Mus musculus; details: switch 1.9, pIND(SP1)LacZ
Protocol: This example was prepared in the same way as switch 1.8 except DmEcR was replaced with a truncated CfEcR comprising a partial A/B domain and the complete CDEF domains [SEQ ID NO: 70 (polynucleotide) and SEQ ID NO: 71 (polypeptide)].
as §2, §5, §3

CfVgRXR [7] = assay: Transactivation of reporter gene through switch 1.10 in 3T3 cells; assay type: cell-based, Choristoneura fumiferana; details: switch 1.10, pIND(SP1)LacZ
Protocol: (§6) This example was prepared in the same way as switch 1.9 except MmRXR (SEQ ID NO: 62) was deleted.
as §2, §5, §3

GAL4CfEcRVP16 [8] = assay: Transactivation of reporter gene through switch 1.6 in 293 cells; assay type: cell-based, Choristoneura fumiferana; details: switch 1.6, pGAL4RELuc
Protocol: as §4, §2
(§7) The same procedures described for CHO were followed for 293 cells except that the cells were plated in biocoated plates to avoid clumping.
as §3

GAL4RXR + VP16CfEcR [9] = assay: Transactivation of reporter gene through switch 1.3 in CV1 cells; assay type: cell-based, Mus musculus; Choristoneura fumiferana; details: switch 1.3, pGAL4RELuc
Protocol: as §2, §5
(§8) The same procedures described for NIH3T3 cells were followed for CV1 cells
as §3

CfVgRXR [10] = assay: Transactivation of reporter gene through switch 1.10 in CV1 cells; assay type: cell-based, Choristoneura fumiferana; details: switch 1.10, pIND(SP1)LacZ
Protocol: as §6, §2, §5, §8, §3

DmVgRXR + MmRXR = DmVgRXR + MmRXR (Drosophila melanogaster, UniProt P34021, E282G/G283S/G286V); assay: Transactivation of reporter gene through switch 1.8 in 293 cells; assay type: cell-based, Drosophila melanogaster; Mus musculus; parameters: host or cells: CHO, NIH3T3, 293 or CV1 cells; details: switch 1.8, pIND(SP1)LacZ
Chain of DmVgRXR + MmRXR (P28700 whole entry, the tested form may be a part): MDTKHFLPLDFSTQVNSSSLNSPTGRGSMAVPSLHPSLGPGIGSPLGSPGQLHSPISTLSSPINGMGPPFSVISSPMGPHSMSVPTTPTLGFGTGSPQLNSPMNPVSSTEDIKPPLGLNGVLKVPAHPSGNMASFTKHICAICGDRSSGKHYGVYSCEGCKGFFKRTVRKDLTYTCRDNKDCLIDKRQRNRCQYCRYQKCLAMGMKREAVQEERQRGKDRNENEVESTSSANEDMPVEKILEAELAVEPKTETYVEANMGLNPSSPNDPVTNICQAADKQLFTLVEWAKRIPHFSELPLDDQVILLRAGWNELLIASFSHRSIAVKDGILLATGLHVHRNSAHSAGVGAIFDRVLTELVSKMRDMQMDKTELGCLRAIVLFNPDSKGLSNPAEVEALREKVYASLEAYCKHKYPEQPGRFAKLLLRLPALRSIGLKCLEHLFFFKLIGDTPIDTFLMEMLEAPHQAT
Chain of DmVgRXR + MmRXR (P34021 whole entry E282G/G283S/G286V, the tested form may be a part): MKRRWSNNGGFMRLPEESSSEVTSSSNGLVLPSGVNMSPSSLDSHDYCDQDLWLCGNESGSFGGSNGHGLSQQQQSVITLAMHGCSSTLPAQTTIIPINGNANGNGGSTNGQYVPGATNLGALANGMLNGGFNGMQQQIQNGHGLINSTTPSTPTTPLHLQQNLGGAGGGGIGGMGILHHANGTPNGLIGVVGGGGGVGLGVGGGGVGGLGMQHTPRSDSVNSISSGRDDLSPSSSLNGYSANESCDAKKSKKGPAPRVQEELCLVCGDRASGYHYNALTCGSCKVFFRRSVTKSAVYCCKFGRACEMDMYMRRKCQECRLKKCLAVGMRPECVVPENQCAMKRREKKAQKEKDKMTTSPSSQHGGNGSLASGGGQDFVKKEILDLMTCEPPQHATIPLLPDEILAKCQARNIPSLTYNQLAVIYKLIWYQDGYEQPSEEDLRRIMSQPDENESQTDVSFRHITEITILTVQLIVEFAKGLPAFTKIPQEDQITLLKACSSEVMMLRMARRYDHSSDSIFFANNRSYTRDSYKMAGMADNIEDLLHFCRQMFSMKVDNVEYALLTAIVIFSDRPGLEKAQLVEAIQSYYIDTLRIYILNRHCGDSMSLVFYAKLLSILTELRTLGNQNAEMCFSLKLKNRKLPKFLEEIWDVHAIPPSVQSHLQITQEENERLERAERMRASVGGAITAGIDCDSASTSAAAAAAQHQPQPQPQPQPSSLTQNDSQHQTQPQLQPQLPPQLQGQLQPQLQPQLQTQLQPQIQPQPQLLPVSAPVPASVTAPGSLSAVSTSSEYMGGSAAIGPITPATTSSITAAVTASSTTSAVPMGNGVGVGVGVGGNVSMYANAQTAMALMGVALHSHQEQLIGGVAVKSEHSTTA
From the text: This system was purchased from Invitrogen Corp., Carlsbad, California. It comprises a Drosophila melanogaster EcR (“DmEcR”) with a modified DNABD fused to VP16AD and placed under the control of a CMV promoter (SEQ ID NO: 68). Full length MmRXR (SEQ ID NO: 62) was placed under the control of the RSV promoter (SEQ ID NO: 69). The reporter, pIND(SP1)LacZ, contains five copies of a modified ecdysone response element (“EcRE”, E/GRE), three copies of an SPI enhancer, and a minimal heat shock promoter, all of which were placed upstream to the LacZ reporter gene.
as §2, §7, §3

## CCc1c(OC)cccc1C(=O)NN(C(=O)c1cc(C)cc(C)c1)C(C)(C)C [N-(2-ethyl-3-methoxybenzoyl)-N′-(3,5-dimethylbenzoyl)-N′-t-butylhydrazine]
GAL4EcR + VP16USP [1]
  Mean Fold Activation with 50 μM N-(2-ethyl-3-methoxybenzoyl)-N′-(3,5-dimethylbenzoyl)-N′-t-butylhydrazine: 2 fold
GAL4RXR + VP16CfEcR [2]
  Mean Fold Activation with 50 μM N-(2-ethyl-3-methoxybenzoyl)-N′-(3,5-dimethylbenzoyl)-N′-t-butylhydrazine: 85 fold
GAL4USP + VP16CfEcR
  Mean Fold Activation with 50 μM N-(2-ethyl-3-methoxybenzoyl)-N′-(3,5-dimethylbenzoyl)-N′-t-butylhydrazine: 2 fold
GAL4CfEcRVP16 [3]
  Mean Fold Activation with 50 μM N-(2-ethyl-3-methoxybenzoyl)-N′-(3,5-dimethylbenzoyl)-N′-t-butylhydrazine: 9 fold
GAL4EcR + VP16USP [4]
  Mean Fold Activation Through N-(2-ethyl-3-methoxybenzoyl)-N′-(3,5-dimethylbenzoyl)-N′-t-butylhydrazine: 2 fold
GAL4RXR + VP16CfEcR [5]; GAL4MmRXRDEF/VP16CfEcRCDEF (switch 1.3), 1.0 μM ligand
  Mean Fold Induction at 1.0 μM Concentration: 71 fold
GAL4RXR + VP16CfEcR [5]; switch 1.3, pGAL4RELuc
  Mean Fold Activation Through N-(2-ethyl-3-methoxybenzoyl)-N′-(3,5-dimethylbenzoyl)-N′-t-butylhydrazine: 47 fold
GAL4CfEcRVP16 [6]
  Mean Fold Activation Through N-(2-ethyl-3-methoxybenzoyl)-N′-(3,5-dimethylbenzoyl)-N′-t-butylhydrazine: 7 fold
CfVgRXR + MmRXR
  Mean Fold Activation Through N-(2-ethyl-3-methoxybenzoyl)-N′-(3,5-dimethylbenzoyl)-N′-t-butylhydrazine: 19 fold
CfVgRXR [7]
  Mean Fold Activation Through N-(2-ethyl-3-methoxybenzoyl)-N′-(3,5-dimethylbenzoyl)-N′-t-butylhydrazine: 2 fold
GAL4CfEcRVP16 [8]
  Mean Fold Activation Through N-(2-ethyl-3-methoxybenzoyl)-N′-(3,5-dimethylbenzoyl)-N′-t-butylhydrazine: 3 fold
GAL4RXR + VP16CfEcR [9]
  Mean Fold Activation Through N-(2-ethyl-3-methoxybenzoyl)-N′-(3,5-dimethylbenzoyl)-N′-t-butylhydrazine: 25 fold
CfVgRXR [10]
  Mean Fold Activation Through N-(2-ethyl-3-methoxybenzoyl)-N′-(3,5-dimethylbenzoyl)-N′-t-butylhydrazine: 1 fold
DmVgRXR + MmRXR
  Mean Fold Activation Through N-(2-ethyl-3-methoxybenzoyl)-N′-(3,5-dimethylbenzoyl)-N′-t-butylhydrazine: 21 fold
